The nature of series [1]: Human PK prediction (allometric scaling). The settings on record: for CL/F / V/F: predicted human. From the text:
The methodology utilized for prediction of human PK of ETX1317 was consistent with methods used in support of similar chemotypes such as avibactam and ETX2514.[43] Human predictions for volume of distribution (Vd,ss) and clearance (CL) were within 2-fold of observed mean data obtained in Phase 1 studies, with renal clearance as the predominant clearance mechanism.[44],[45] Pharmacokinetic and excretion data from rats, dogs, and monkeys were used collectively for the projection of ETX1317 PK. Liver S9 incubations were also performed across all species (including human) to confirm consistent conversion of ETX0282 to ETX1317 at projected dose levels of ETX0282.[42] Human PK prediction of ETX1317 was completed using single species allometry for volume of distribution from dog PK and dog and monkey single species scaling using liver blood flow to predict non-renal clearance (CLNR).[46] […] While urinary excretion of ETX1317 was lower in dogs relative to monkeys and rats, human renal clearance (CLR) was predicted using dog-human renal correlation,[47] as this method has been highly predictive for compounds that are generally eliminated via renal excretion. The elimination half-life was estimated based upon the combined use of predicted parameters for clearance and volume of distribution, where T1/2 = ln 2*Vd,ss/CLtotal. Allometric scaling predicted human Vd,ss of 0.35 L/kg.
Based upon the non-clinical PK data, a range of 60–80% bioavailability and a moderate absorption rate of 0.5–1.0 h^–1 have been considered for humans. In consideration of these predicted parameters, mean percent fT > CT of 1 μg/mL (2× MIC of 0.5 μg/mL) estimates for a 500 mg ETX1317 equiv q12h dose of ETX0282 are summarized in Table S3.

Series [2] can be described thus: Intravenous pharmacokinetics of ETX1317. Conditions: i.v. 10 mg/kg. It counts as in vivo, rat. The method, then:
Intravenous pharmacokinetics of ETX1317 investigated in jugular vein cannulated male Sprague–Dawley rats (Charles River Laboratories, n = 3/route) at a dose of 10 mg/kg formulated in 0.9% saline. Oral pharmacokinetics of ETX0282 was evaluated at a 10 mg/kg equivalent dose of ETX1317 formulated in 25:75 PEG 400:WFI. The pH of each formulation was verified to fall within a range of 4–7 and were confirmed to be in solution prior to dosing. Potency was verified by LC/MS/MS. Dose volumes were 5 and 10 mL/kg for ETX1317(i.v.) and ETX0282(p.o.), respectively for rats. In both dog (male, 3/route) and monkey (male, 3/route) studies, i.v. and p.o. doses were formulated on 25:75 PEG 400:WFI (pH ∼5) and administered at a dose of ∼1 mg/kg. Dose volume was 1 mL/kg for both routes in dogs and monkeys with the i.v. dose infused over 15 min. For oral doses, gavage tubes were flushed with 10 mL after administration of the dose. i.v. doses were sterile-filtered through 0.22 μm PVDF membrane prior to administration into the cephalic vein.
Blood samples to be processed for plasma using K2EDTA as an anticoagulant were taken at 0.08, 0.17, 0.25, 0.5, 1, 2, 4, and 8 h (i.v.) and 0.25, 0.5, 1, 2, 4, 8, and 24 h (p.o.) post dose in rats. Blood samples collected into 0.5 mL BD microtainers containing 1.0 mg K2EDTA were centrifuged in a microfuge for 10 min, plasma pipetted to 96 well cryo tubes, and stored at −80 °C prior to analysis.
Urine collection was collected directly into Nalgene bottles placed under metabolism cages with frozen ice packs to chill urine over the collection interval. Urine was collected 0–12, and 12–24 h post-dose. Following collection of each urine sample, the total urine weight was recorded and 3 mL aliquots were retained for LC/MS/MS analysis.
Non-compartmental analysis of time vs concentration data for ETX1317, ETX0282, CPD, and CPDP was completed using WinNonlin 8.1 (Pharsite Corporation, Mountain View CA). The maximum concentration (Cmax) was the highest observed concentration; Tmax was the earliest time at which Cmax occurred; and the elimination half-life was estimated as ln 2/kel, where kel is the elimination rate constant derived from the slope of the log concentration versus time profile. The area under the concentration–time curve from 0 h to the last time point (AUC0-tlast) was calculated by linear trapezoidal approximation. Clearance (CL) was estimated as Dose/AUC0-tlast and the steady state volume of distribution (Vd,ss) was estimated as CL* MRT, where MRT = AUMC/AUC (MRT = mean residence time and AUMC = area under the moment curve). Oral bioavailability (F) was determined from ETX1317 concentrations and normalizing doses to free acid equivalence, where F = AUCp.o.*(dosei.v.)/AUCi.v.*(dosep.o.).

Where [3] appears, read: male, Sprague-Dawley, rat, plasma, iv.

SMILES strings stand for the structures. Read-outs that look alike come from different tables or passages of the source.

We go through 1 compound from publication PMC7297445, “Pharmacokinetic/Pharmacodynamic Determination and Preclinical Pharmacokinetics of the β-Lactamase Inhibitor ETX1317 and Its Orally Available Prodrug ETX0282” (ACS Infectious Diseases, 2020).

One may read the CL/F as the apparent clearance, not corrected for the fraction that reaches the circulation. For orientation: AUC means concentration integrated over time. Read a high AUC as more exposure. As usually defined, the Cmax is the highest concentration seen after dosing. For orientation: half-life means the time needed for the level to fall by half in the phase considered. Higher therefore signals slow loss. What is called Vd is the apparent volume that relates the amount in the body to the concentration in plasma or blood. For `CC1=C[C@@H](C(N)=O)N2C[C@@H]1N(O[C@H](F)C(=O)O)C2=O` [ETX1317], the predicted human half-life in series [1] (T1/2 = ln 2*Vd,ss/CLtotal) is 72 to 96 min. For the same compound, in series [1] (F% 60), the apparent clearance CL/F was 17.6 to 23.7 L/h and the V/F was 41 L. For the same compound, in series [1] (F% 70), the CL/F is 15.1 to 20.3 L/h and the V/F is 35 L. In series [1] (F% 80), the apparent clearance (CL/F) was 13.2 to 17.8 L/h and the V/F is on record as 31 L. Besides, in series [2] (10 mg/kg), the CL is listed as 23.1 ± 1.1 mL/min/kg. The clearance in series [2] (male, Sprague-Dawley, rat, plasma, iv, 10 mg/kg, read-out: CL) was found to be 23 mL/min/kg. In series [2] (setting [3]), the AUC turned out to be 7190 ± 340 ng·h/mL, the concentration peaked (Cmax) at 17500 ± 2000 ng/mL and the half-life is 24 ± 1.2 min. Further, the volume of distribution (Vd) in series [2] (male, Sprague-Dawley, rat, plasma, iv, read-out: Vd,ss) turned out to be 0.7 ± 0.01 L/kg. In series [2] (male, Sprague-Dawley, rat, urine and plasma, iv, 10 mg/kg, read-out: renal CL), the clearance came to 13.4 ± 0.3 mL/min/kg.
